From EP3017816A2, “DIINDOLYLMETHANE-BASED MEDICINAL AGENT AND USE THEREOF TO TREAT INFLUENZA AND VIRAL RESPIRATORY INFECTIONS” (Kiselev, Vsevolod Ivanovich, priority 2013, dated 2014)
“And” between values parts separate entries of the source, which are not always exact repeats. Equal values may be shown once.

How the values were obtained:
[1] = system: A/Aichi/2/68 (H3N2) influenza virus; assay: Virus titration in lung tissue of infected mice (CAM fragments, hemagglutination reaction); format: in vivo, white mice; conditions: 3rd day
[2] = Concentration of diindolylmethane in volunteers' plasma after oral administration; format: in vivo; conditions: same dosage; range of concentrations approximately 300 ng/ml
Procedure: In all the clinical studies, pharmacokinetics comparison was made between the DIM preparation of the invention on the basis of A-type fish oil with the concentration 1-10% of preparation, the DIM preparation on the basis of Omega 3 and the crystalline DIM in the same dosages. […] The maximum DIM concentration in blood was observed two hours after the administration of preparations and achieved approximately 300 ng/ml.

[3] = system: A/Aichi/2/68 (H3N2) influenza virus; assay: Experimental lethal influenza infection in mice: mortality, average life, protection index; format: in vivo, white mice; conditions: for Average life / Protection index, % / total mortality (number of dead/infected): reference preparation, dose not given; for total mortality (number of dead/infected): day 15
[4] = system: A/Aichi/2/68 (H3N2) influenza virus; assay: Surface of chronic postinfluenzal pneumonia foci in lungs of surviving mice; format: in vivo, white mice; conditions: for Surface of chronic pneumonia foci (% of total surface of the lung surface): reference preparation, dose not given, survivors day 15
Procedure: The animals that survived to the 15th day after infection were autopsied and their lungs were studied macroscopically. Visual evaluation was carried out of the surface of chronic foci of postinfluenzal pneumonia remaining in the lung tissue of mice after the acute stage of the influenza infection within the entire life of the animal. The surface of the lesion foci was expressed in percentage to the entire lung surface.

| SMILES | Infectious titer of the influenza virus (lg EID50) in lungs ([1]; 60 mg/kg orally, virus dosage 1, group average) [lg EID50] | Infectious titer of the influenza virus (lg EID50) in lungs ([1]; 60 mg/kg orally, virus dosage 1, individual animals) | Infectious titer of the influenza virus (lg EID50) in lungs ([1]; 60 mg/kg orally, virus dosage 2, group average) [lg EID50] | Infectious titer of the influenza virus (lg EID50) in lungs ([1]; 60 mg/kg orally, virus dosage 2, individual animals) | detection of DIM in the patients' plasma [2] | survival of infected animals (Fig. 2) ([3]; virus dosage 10 LD50) | Infectious titer of the influenza virus (lg EID50) in lungs ([1]; 50 mg/kg orally, virus dosage 1, group average) [lg EID50] | Infectious titer of the influenza virus (lg EID50) in lungs ([1]; 50 mg/kg orally, virus dosage 1, individual animals) | Infectious titer of the influenza virus (lg EID50) in lungs ([1]; 50 mg/kg orally, virus dosage 2, group average) [lg EID50] | Infectious titer of the influenza virus (lg EID50) in lungs ([1]; 50 mg/kg orally, virus dosage 2, individual animals) | Average life ([3]; virus dosage 1 LD50) [days] | Protection index, % ([3]; virus dosage 1 LD50) [%] | total mortality (number of dead/infected) ([3]; virus dosage 1 LD50) | Average life ([3]; virus dosage 10 LD50) [days] | Protection index, % ([3]; virus dosage 10 LD50) [%] | total mortality (number of dead/infected) ([3]; virus dosage 10 LD50) | protection index ([3]; text summary over both virus dosages) | effect on the surface of chronic pneumonia foci [4] | Surface of chronic pneumonia foci (% of total surface of the lung surface) ([4]; viral dosage 1 LD50) [%] | Surface of chronic pneumonia foci (% of total surface of the lung surface) ([4]; viral dosage 10 LD50) [%] |
| --- | --- | --- | --- | --- | --- | --- | --- | --- | --- | --- | --- | --- | --- | --- | --- | --- | --- | --- | --- | --- |
| c1ccc2c(Cc3c[nH]c4ccccc34)c[nH]c2c1 [crystalline DIM, 3,3-diindolylmethane] | 3.8±0.17 | 4.0 lg EID50 (2×) and 3.5 lg EID50 | 4.5±0.29 | 5.0 lg EID50 and 4.0 lg EID50 and 4.5 lg EID50 | did not enable one to discover it in this range of concentrations | had no practical influence on the survival | – | – | – | – | – | – | – | – | – | – | – | – | – | – |
| CC(N)C12CC3CC(CC(C3)C1)C2 (centres unmarked) [rimantadine] | – | – | – | – | – | – | 2.3±0.17 | 2.0 lg EID50 and 3.0 lg EID50 and 2.5 lg EID50 | 2.7±0.17 | 2.5 lg EID50 (2×) and 3.0 lg EID50 | 14.4 | 80 | 1/10 | 13.9 | 78 | 2/10 | 78-80% | reduced this index for each infecting dosage | 31±11.8 | 27±6.8 |
